According to patent US11401254B2, “Substituted thiophenecarboxamides and analogues as antibacterials agents” (Bayer Aktiengesellschaft, priority 2018, dated 2022):

What was measured:
[1] = Log P by HPLC on reversed phase columns (EEC directive 79/831 Annex V.A8); format: physicochemical; details: for chromatographic logP: reversed phase HPLC columns
Protocol: In the above tables, measurement of Log P values was performed according to EEC directive 79/831 Annex V.A8 by HPLC (High Performance Liquid Chromatography) on reversed phase columns with the following methods: • ^[a]
If more than one Log P value is available within the same method, all the values are given and separated by “+”.
Calibration was done with straight-chain alkan2-ones (with 3 to 16 carbon atoms) with known Log P values (measurement of Log P values using retention times with linear interpolation between successive alkanones). Lambda-max-values were determined using UV-spectra from 200 nm to 400 nm and the peak values of the chromatographic signals.

[2] = tested on: Xanthomonas campestris pv. campestris; assay: Xanthomonas campestris pv. campestris in vitro cell test (bacteria growth in liquid culture); format: cell-based; details: 20 ppm of tested compound; 24 h of incubation
Protocol: Example A: Xanthomonas Campestris pv. Campestris In Vitro Cell Test
Culture medium: LB broth medium (Luria Broth Miller) Sigma
Inoculum: bacteria suspension
Compounds to be tested were solubilized in DMSO and the solution used to prepare the required range of concentrations. The final concentration of DMSO used in the assay was ≤1%.
Inoculum was prepared from a pre-culture of bacteria grown in liquid medium and diluted to the desired optical density (OD).
Compounds were evaluated for their ability to inhibit bacteria growth in liquid culture assay. The compounds were added in the desired concentrations to culture medium containing the bacteria suspension. After 24 h of incubation, the efficacy of compounds was determined by spectrometric measurement of bacteria growth. Inhibition was determined by comparing the absorbance values in wells containing the compounds with the absorbance in control wells without compounds.

[3] = tested on: Xanthomonas campestris pv. campestris; assay: In vivo preventive test on Xanthomonas campestris pv. campestris (black rot on cabbage); details: Example C comparative table; same conditions as described in Example B; concentration not given
Protocol: Example B: In Vivo Preventive Test on Xanthomonas campestris pv. Campestris (Black Rot on Cabbage)
The tested compounds were prepared by homogenization in a mixture of acetone/Dimethyl sulfoxide/Tween®, and then diluted with water to obtain the desired concentration.
The young plants of cabbage were treated by spraying the compound prepared as described above. Control plants were treated only with an aqueous solution of acetone/Dimethyl sulfoxide/Tween®.
After 72 hours, the plants were contaminated by spraying the leaves with an aqueous bacteria suspension of Xanthomonas campestris pv. campestris. The contaminated cabbage plants were incubated for 8 or 10 days at 27° C. at 95% relative humidity.
The test was evaluated 8 or 10 days after the inoculation. 0% means an efficacy which corresponds to that of the control plants while an efficacy of 100% means that no disease was observed.
Compounds CMP3, CMP4, CMP5 and CMP6 were tested in an in vivo preventive test on Xanthomonas campestris pv. campestris (black rot on cabbage) in the same conditions as described in Example B.

[4] = method [a]: LC-UV, acidic range, 0.1% formic acid in water and acetonitrile as eluent
[5] = value given in preparation example, method variant not stated

chromatographic logP [1, 4]	chromatographic logP [1, 5]	LogP [1, 4]	SMILES	direct activity (inhibition of bacteria growth) [2]	Efficacy (%) [3]
2.92	2.92	–	Cc1c(C(=O)N[C@H](C(=O)O)C(C)C)sc(Br)c1Br (racemic) [I.07, N-[(4,5-dibromo-3-methyl-2-thienyl)carbonyl]-valine]	no direct activity	–
–	–	–	CCOC(=O)C(NC(=O)c1sc(Br)c(Br)c1Br)C(C)C (centres unmarked) [CMP3, reference compound]	–	33%
–	–	–	CCOC(=O)CNC(=O)c1sc(Br)c(Br)c1Br [CMP4, reference compound]	–	0%
3.19	3.22	–	CCOC(=O)C1(NC(=O)c2sc(Br)c(Br)c2C)CC1 [I.01, ethyl 1-{[(4,5-dibromo-3-methyl-2-thienyl)carbonyl]amino}cyclopropanecarboxylate]	no direct activity	–
2.9	2.95	–	CCOC(=O)CNC(=O)c1sc(Cl)c(Cl)c1C [I.03, ethyl N-[(4,5-dichloro-3-methyl-2-thienyl)carbonyl]glycinate]	no direct activity	–
–	–	4.56^[a]	CCOC(=O)C(CC(C)C)NC(=O)c1sc(Br)c(Br)c1C (centres unmarked) [I.05]	no direct activity	–
–	–	4.32^[a]	CCOC(=O)[C@@H](NC(=O)c1sc(Br)c(Br)c1C)C(C)C [I.08]	no direct activity	–
–	–	2.05^[a]	Cc1c(C(=O)NCC(=O)O)sc(Br)c1Br [I.10]	no direct activity	–
–	–	3.87^[a]	COC(=O)[C@@H](NC(=O)c1sc(Br)c(Br)c1C)C(C)C [I.11]	no direct activity	–
–	–	4.06^[a]	C#CCOC(=O)C(NC(=O)c1sc(Br)c(Br)c1C)C(C)C (centres unmarked) [I.13]	no direct activity	–
–	–	3.69^[a]	Cc1c(C(=O)NC(C(=O)OCC#N)C(C)C)sc(Br)c1Br (centres unmarked) [I.15]	no direct activity	–
–	–	3.42^[a]	Cc1c(C(=O)NC(C(=O)OC2CS(=O)(=O)C2)C(C)C)sc(Br)c1Br (centres unmarked) [I.18]	no direct activity	–
–	–	3.78^[a]	Cc1c(C(=O)NC(C(=O)OC2CCOC2)C(C)C)sc(Br)c1Br (centres unmarked) [I.19]	no direct activity	–
–	–	5.78^[a]	Cc1c(C(=O)NC(C(=O)OC[Si](C)(C)C)C(C)C)sc(Br)c1Br (centres unmarked) [I.20]	no direct activity	–
–	–	3.39^[a]	CCOC(=O)C(C)NC(=O)c1sc(Br)c(Br)c1C (centres unmarked) [I.21]	no direct activity	–
–	–	3.33^[a]	CCOC(=O)C(Cc1ccc(O)cc1)NC(=O)c1sc(Br)c(Br)c1C (centres unmarked) [I.23]	no direct activity	–
–	–	3.94^[a]	CCOC(=O)[C@H](CCSC)NC(=O)c1sc(Cl)c(Cl)c1C [I.24]	no direct activity	–
–	–	4.46^[a]	CCOC(=O)[C@H](Cc1ccccc1)NC(=O)c1sc(Cl)c(Cl)c1C [I.26]	no direct activity	–
–	–	3.31^[a]	CCOC(=O)C(C)NC(=O)c1sc(Cl)c(Cl)c1C (centres unmarked) [I.27]	no direct activity	–
–	–	3.79^[a]	COC(=O)[C@@H](NC(=O)c1sc(Cl)c(Cl)c1C)C(C)C [I.29]	no direct activity	–
–	–	3.55^[a]	COC(=O)[C@H](CCSC)NC(=O)c1sc(Cl)c(Cl)c1C [I.30]	no direct activity	–
–	–	2.51^[a]	COC(=O)CNC(=O)c1sc(Cl)c(Cl)c1C [I.31]	no direct activity	–

chromatographic logP [1, 4]	chromatographic logP [1, 5]	LogP [1, 4]	SMILES	direct activity (inhibition of bacteria growth) [2]	Efficacy (%) [3]
–	–	4.54^[a]	CCOC(=O)[C@H](CC(C)C)NC(=O)c1sc(Cl)c(Cl)c1C [I.33]	no direct activity	–
–	–	3.76^[a]	Cc1c(C(=O)NCC(=O)OCc2ccccc2)sc(Cl)c1Cl [I.34]	no direct activity	–
–	–	3.55^[a]	COC(=O)C(CCSC)NC(=O)c1sc(Cl)c(Cl)c1C (centres unmarked) [I.35]	no direct activity	–
–	–	3.55^[a]	COC(=O)[C@@H](CCSC)NC(=O)c1sc(Cl)c(Cl)c1C [I.36]	no direct activity	–
–	–	4.51^[a]	CCOC(=O)C(CC(C)C)NC(=O)c1sc(Cl)c(Cl)c1C (centres unmarked) [I.37]	no direct activity	–
–	–	3.29^[a]	CCOC(=O)C(Cc1ccc(O)cc1)NC(=O)c1sc(Cl)c(Cl)c1C (centres unmarked) [I.39]	no direct activity	–
–	–	3.29^[a]	Cc1c(C(=O)NCC(=O)OC(C)C)sc(Cl)c1Cl [I.41]	no direct activity	–
–	–	3.08^[a]	CCOC(=O)C1(NC(=O)c2sc(Cl)c(Cl)c2C)CC1 [I.43]	no direct activity	–
–	–	3.79^[a]	COC(=O)C(NC(=O)c1sc(Cl)c(Cl)c1C)C(C)C (centres unmarked) [I.46]	no direct activity	–
–	–	3.94^[a]	CCOC(=O)C(CCSC)NC(=O)c1sc(Cl)c(Cl)c1C (centres unmarked) [I.47]	no direct activity	–
–	–	3.35^[a]	CCCOC(=O)CNC(=O)c1sc(Cl)c(Cl)c1C [I.48]	no direct activity	–
–	–	4.77^[a]	Cc1c(C(=O)NC(C(=O)OC(C)C)C(C)C)sc(Br)c1Br (centres unmarked) [I.49]	no direct activity	–
–	–	2.26^[a]	Cc1c(C(=O)NC2(C(=O)O)CC2)sc(Cl)c1Cl [I.51]	no direct activity	–
–	–	4.98^[a]	Cc1c(C(=O)NC(C(=O)OC2CCC2)C(C)C)sc(Br)c1Br (centres unmarked) [I.53]	no direct activity	–
–	–	4.77^[a]	CCCOC(=O)C(NC(=O)c1sc(Br)c(Br)c1C)C(C)C (centres unmarked) [I.54]	no direct activity	–
–	–	5.25^[a]	CCCCOC(=O)C(NC(=O)c1sc(Br)c(Br)c1C)C(C)C (centres unmarked) [I.55]	no direct activity	–
–	–	4.37^[a]	Cc1c(C(=O)NC(C(=O)OC2CC2)C(C)C)sc(Br)c1Br (centres unmarked) [I.56]	no direct activity	–
–	–	5.03^[a]	Cc1c(C(=O)NC(C(=O)OCc2ccccc2)C(C)C)sc(Br)c1Br (centres unmarked) [I.57]	no direct activity	–
–	–	4.46^[a]	C=CCOC(=O)C(NC(=O)c1sc(Br)c(Br)c1C)C(C)C (centres unmarked) [I.58]	no direct activity	–
–	–	4.51^[a]	Cc1c(C(=O)NC(C(=O)OCC(F)(F)F)C(C)C)sc(Br)c1Br (centres unmarked) [I.59]	no direct activity	–
–	–	4.85^[a]	Cc1c(C(=O)NC(C(=O)Oc2ccccc2)C(C)C)sc(Br)c1Br (centres unmarked) [I.60]	no direct activity	–
–	–	5.25^[a]	Cc1c(C(=O)NC(C(=O)OC(C)(C)C)C(C)C)sc(Br)c1Br (centres unmarked) [I.61]	no direct activity	–

SMILES	chromatographic logP [1, 4]	chromatographic logP [1, 5]	LogP [1, 4]	direct activity (inhibition of bacteria growth) [2]	Efficacy (%) [3]
Cc1c(C(=O)NC(C(=O)OCC(C)C)C(C)C)sc(Br)c1Br (centres unmarked) [I.14]	–	–	5.22^[a]	no direct activity	–
Cc1c(C(=O)NC(C(=O)OC2CSC2)C(C)C)sc(Br)c1Br (centres unmarked) [I.17]	–	–	4.67^[a]	no direct activity	–
Cc1c(C(=O)NCC(=O)OC(C)(C)C)sc(Cl)c1Cl [I.28]	–	–	3.77^[a]	no direct activity	–
CCOC(=O)C(Cc1ccccc1)NC(=O)c1sc(Cl)c(Cl)c1C (centres unmarked) [I.38]	–	–	4.46^[a]	no direct activity	–
CCOC(=O)[C@@H](C)NC(=O)c1sc(Cl)c(Cl)c1C [I.42]	–	–	3.31^[a]	no direct activity	–
CCOC(=O)[C@@H](Cc1ccccc1)NC(=O)c1sc(Cl)c(Cl)c1C [I.45]	–	–	4.46^[a]	no direct activity	–
